Results from the CATMoS acute toxicity set (Mansouri et al. 2021).

Assay: GHS categories as the set defines them, by LD50: 1 up to 5, 2 up to 50, 3 up to 300, 4 up to 2000, 5 above 2000 mg/kg
Details: rat; in vivo; po

Row | Structure (SMILES) | GHS category
1 | CC1CCC(C(C)(C)O)CC1 (configuration not stated) | 5
2 | CC(C)(C=O)CN1CCOCC1 | 5
3 | O=C(O)CCn1nc2ccccn2c1=O | 5
4 | CC(C)(C)c1cc(Cn2c(=O)n(Cc3cc(C(C)(C)C)c(O)c(C(C)(C)C)c3)c(=O)n(Cc3cc(C(C)(C)C)c(O)c(C(C)(C)C)c3)c2=O)cc(C(C)(C)C)c1O | 5
5 | Clc1cc(Cl)c2oc(C3(Cn4cncn4)OCCO3)cc2c1 | 4
6 | Cc1cc2cc3c(C)cc(=O)oc3c(C)c2o1 | 5
7 | CCCCn1c(C)c(CC(=O)O)c2c1CC(C)(C)CC2=O | 5
8 | CNC(=O)Oc1cccc2c1OCO2 | 3
9 | O=S(=O)(c1ccc(Cl)cc1)c1ccc(Cl)cc1 | 5
10 | C[C@]1(Cn2ccnn2)[C@H](C(=O)O)N2C(=O)C[C@H]2S1(=O)=O | 5
11 | C=CC(C)CCC=C(C)C (configuration not stated) | 5
12 | C[C@]12CC[C@H]3[C@@H](CC[C@@]45O[C@@H]4C(O)=C(C#N)C[C@]35C)[C@@H]1CC[C@@H]2O | 5
13 | CCCCCCCCCCCCCC(=O)N[C@@H](CCC(=O)O)C(=O)O | 5
14 | COc1cc2c(s1)C(O)=C(C(=O)Nc1ccccn1)N(C)S2(=O)=O | 3
15 | COc1ccc2c(c1)CCN(c1ccccc1)C2c1ccccc1OC (configuration not stated) | 4
16 | Cc1cccn2c(=O)c(C(=O)NC3CCCC3)cnc12 | 3
17 | Nc1ccc(N)c(S(=O)(=O)O)c1 | 5
18 | CCC1OC(=O)C(C)C(OC2CC(C)(OC)C(O)C(C)O2)C(C)C(OC2OC(C)CC(N(C)C)C2O)C(C)(O)CC(C)C(=O)C(C)C(O)C1(C)O (configuration not stated) | 5
19 | O=C1OC(=O)c2ccc3c4ccc5c6c(ccc(c7ccc1c2c73)c64)C(=O)OC5=O | 5
20 | CC(C)=CCC(C#N)(CCN1CCOCC1)c1cccc2ccccc12 (configuration not stated) | 4
21 | CCn1cc(C(=O)O)c(=O)c2cc(F)c(N3CCNCC3)nc21 | 5

Row | Structure (SMILES) | GHS category
22 | O=C(O)CCCCCCCCCCNS(=O)(=O)c1ccc(Cl)cc1C(=O)c1ccccc1 | 4
23 | O=C(O)c1cc(O)c2c3nc4ccccc4oc-3cc(=O)c2n1 | 5
24 | CC(CO)(CO)C(=O)O | 5
25 | COc1ccc(CCC(C)=O)cc1 | 5
26 | CCCCCCC(C)(C)c1cc(O)c2c(c1)OC(C)(C)[C@@H]1CCC(=O)C[C@@H]21 | 4
27 | COc1cc([N+](=O)[O-])ccc1N=NC(C(C)=O)C(=O)Nc1cc(Cl)ccc1OC (configuration not stated) | 5
28 | CC(C)(C)c1ccc(N(CCN2CCCCC2)c2cccc(Cl)c2)cc1 | 5
29 | C[C@H]1O[C@H](OC[C@H]2O[C@H](O)[C@H](OS(=O)(=O)O)[C@@H](OS(=O)(=O)O)[C@@H]2OS(=O)(=O)O)[C@H](OS(=O)(=O)O)[C@@H](OS(=O)(=O)O)[C@@H]1O | 5
30 | CC1CC(C)C(C)C(C)C1 (configuration not stated) | 5
31 | O=C(c1ccc(Oc2ccccc2)cc1)c1ccc(C(=O)c2ccc(Oc3ccccc3)cc2)cc1 | 5
32 | C[C@]12C[C@@H](O)[C@H]3[C@@H](CCC4=CC(=O)CC[C@@H]43)[C@@H]1CCC2=O | 4
33 | CCOP(=O)(OCC)c1ccccc1 | 4
34 | O=S(=O)(O)c1ccc(Cl)cc1 | 4
35 | CO/N=C(\C(=O)N[C@@H]1C(=O)N2C(C(=O)[O-])=C(C[N+]34CCC(C(N)=O)(CC3)CC4)CS[C@H]12)c1nsc(N)n1 | 5
36 | CCCCCC1C(=O)CCC1CC(C)=O (configuration not stated) | 5
37 | CC(C)CCCCCCCOP(=O)(Oc1ccccc1)Oc1ccccc1 | 5
38 | CCCC(CCC)C(=O)Oc1cc(C(C)C)ccc1C | 5
39 | C=C(C)C(=O)OCC[N+](C)(C)C | 5
40 | CCOCC=C(C)CCC=C(C)C | 5
41 | Nc1c(OCCOC(=O)Oc2ccccc2)cc(O)c2c1C(=O)c1ccccc1C2=O | 5
42 | COc1cccc(OC)c1C(=O)NC(=O)Nc1c(F)cccc1F | 4

Row | Structure (SMILES) | GHS category
43 | O=C1Nc2ccccc2C1=O | 5
44 | CC1C2Cc3ccc(O)cc3C1(C)CCN2CCCC(=O)c1ccc(F)cc1 (configuration not stated) | 4
45 | CC1C(C)(C)C2CCc3cncnc3C2C1(C)C (configuration not stated) | 4
46 | O=c1ccc2cccnc2n1-c1cccc(C(F)(F)F)c1 | 3
47 | Cc1cc(-n2nc3ccc(Cl)cc3n2)c(O)c(C(C)(C)C)c1 | 5
48 | C=C(C)C1CCC(C)=C1CC(C)(C)COC(=O)CC (configuration not stated) | 5
49 | CC(=O)OC1CCC2(C)C(CCC3(C)C2C(=O)C=C2C4CC(C)(C(=O)O)CCC4(C)CCC23C)C1(C)C (configuration not stated) | 5
50 | CCC1(C2=CCCCCC2)C(=O)NC(=O)NC1=O | 5
51 | COc1ccc2[nH]cc(CCNC(C)=O)c2c1 | 5
52 | CCO[Si](C)(OCC)OCC | 5
53 | N#Cc1ccccc1-c1ccc(CBr)cc1 | 5
54 | CCCC/C=C/C=C\C=O | 5
55 | CCCCCCCCC=CCCCCCCCC(=O)OC(C)C | 5
56 | CO[Si](CCCCl)(OC)OC | 5
57 | CCCCOC(=O)C1C(C(=O)OCCCC)C2(Cl)C(Cl)=C(Cl)C1(Cl)C2(Cl)Cl (configuration not stated) | 5
58 | CCCc1c(Cc2ccc(-c3sccc3-c3nn[nH]n3)cc2)c(=O)nc2nc(C)[nH]n12 | 4
59 | CO[C@H]1C=CO[C@@]2(C)Oc3c(C)c(O)c4c(O)c(c(/C=N/N5CCN(C6CCCC6)CC5)c(O)c4c3C2=O)NC(=O)C(C)=CC=C[C@H](C)[C@H](O)[C@@H](C)[C@@H](O)[C@@H](C)[C@H](OC(C)=O)[C@@H]1C | 5
60 | Oc1cc(Cl)cc(Br)c1 | 5
61 | CC(C)CCCCCCCCCCCCCCC(=O)OC(C)C | 5
62 | CCCCOC(=O)c1ccc(-n2nc(OCCCN(C)C)c3ccccc32)cc1 | 4
63 | Cc1cc(C(F)(C(F)(F)F)C(F)(F)F)ccc1NC(=O)c1cccc(I)c1C(=O)NC(C)(C)CS(C)(=O)=O | 5

Row | Structure (SMILES) | GHS category
64 | OCC(CO)(CO)COCC(CO)(CO)CO | 5
65 | O=C(O)[C@@H]1C[C@@H](C2CCCCC2)CN1 | 5
66 | Clc1ccc(Oc2cccc(Cl)c2)cc1 | 5
67 | CC12CCC(=O)C=C1CCC1C3CCC4(CCC(=O)O4)C3CCC12C (configuration not stated) | 5
68 | Cc1cccc(N(C)C(=S)Oc2ccc3ccccc3c2)c1 | 5
69 | CCNc1nc(Nc2ccccc2)nc(Nc2ccc(C=Cc3ccc(Nc4nc(NCC)nc(Nc5ccccc5)n4)cc3S(=O)(=O)O)c(S(=O)(=O)O)c2)n1 | 5
70 | C[N+](C)(CCO)CC(O)C[N+](C)(C)CCO | 4
71 | O=C(NCC(O)CCl)c1ccc([N+](=O)[O-])cc1 (configuration not stated) | 3
72 | CC(O)CCCCO (configuration not stated) | 5
73 | CCCCCCCCCCCCCCCC(=O)OC1=C(C(=O)Nc2ccccn2)N(C)S(=O)(=O)c2ccsc21 | 2
74 | O=C(O)c1ccccc1N=Cc1ccccc1 | 4
75 | CNC(=O)c1cnc2cccc(C)n2c1=O | 3
76 | CCCCCCOc1ccccc1C(N)=O | 5
77 | CCC/C=C/COC(C)=O | 5
78 | CCCCc1oc2ccc([N+](=O)[O-])cc2c1C(=O)c1ccc(O)cc1 | 5
79 | CN/C(=N\[N+](=O)[O-])NCc1cnc(Cl)s1 | 5
80 | C=C(C)C1CCC(C)C(=O)C1 (configuration not stated) | 5
81 | O=C(O)C[C@H](NCCN[C@@H](CC(=O)O)C(=O)O)C(=O)O | 5
82 | CCN(C(=O)Cl)C1CCCCC1 | 4
